“Also recorded” adds a separate entry of the source. Structures can show the parent of a compound that is named as a salt.
Legend:
bovine brain tubulin = test: Inhibition of GTP-induced tubulin assembly (turbidimetry at 350 nm); assay type: biochemical; conditions: after 20 min at 30° C., 10 μM bovine brain tubulin, 0.8 M monosodium glutamate
Protocol: Bovine brain tubulin was isolated to electrophoretic homogeneity from fresh brains via methodology described by Hamel and Lin, Biochemistry 23: 4173-84 (1984). Tubulin (final concentration 10 μM; 1 mg/mL) was preincubated with test agents dissolved in DMSO (4% v/v final concentration) and monosodium glutamate (0.8 M final concentration, pH 6.6) for 15 minutes at 30° C. The reaction mixture was cooled to 0° C., and GTP (0.4 mM final concentration) was added. Reaction mixtures were transferred to cuvettes held at 2.5° C. in a Beckmann DU 7400 multichannel, temperature-controlled (Peltier unit) spectrophotometer, reading absorbance (turbidity) at 350 nm in each cuvette every 15 seconds. Baselines were established and temperature was quickly raised to 30° C. (in approximately 1 minute). After 20 minutes, the temperature was returned to 2.5° C. The turbidity value after 20 minutes at 30° C. for GTP alone was assigned as 100% assembly, and for DMSO alone as 0% assembly. The IC50 was calculated by linear regression of the percent assembly values at the same time point obtained with 0.625, 1.25, 2.5, 5, 10 and 20 μM test agent. In experiments to test for disassembly of preformed tubulin polymer, the test agent was added after 7 minutes of GTP-induced assembly.

[1] = system: HeLa human cervical carcinoma cells; test: High-content analysis of mitotic arrest in HeLa cells; assay type: cell-based; conditions: for Microtubule Density MDEC (minimum detectable effective concentration) / Mitotic Index MDEC (percentage of phosphohistone H3-positive cells) / Nuclear Condensation MDEC (minimum detectable effective concentration) / EC50: 20 hours treatment, average of four experiments ± SD; for EC50: Homo sapiens, read-out: Cell Density EC50; for activity in high-content analysis of mitotic arrest (in words): all endpoints measured
Protocol: The effects of tubulysin analogs on mitotic arrest and cellular microtubules were studied. HeLa human cervical carcinoma cells (10,000 per well) were plated in collagen-1 coated 384-well microplates and were treated with vehicle (DMSO) or ten two-fold concentration gradients of test agents within 4-6 hours of seeding. Cells were incubated for 20 hours at 37° C., fixed with formaldehyde, and labeled with 10 μg/mL Hoechst 33342 in Hank's balanced salt solution (HBSS). Cells were permeabilized with 0.5% (w/w) Triton X-100 for 5 min at room temperature and incubated with a primary antibody cocktail consisting of an HBSS solution containing rabbit polyclonal anti-phosphohistone H3 (Ser10, 1:500, Upstate), and mouse monoclonal anti-α-tubulin (1:3000, Sigma), followed by a mixture of FITC-labeled donkey anti-mouse IgG (1:500) and Cy3-labeled donkey anti-rabbit IgG (1:500). Cells were rinsed once with HBSS and stored at 4° C. in HBSS until analysis.
Microplates were analyzed with an ArrayScanII instrument (Cellomics, Pittsburgh, Pa.) using the Target Activation Bioapplication (Cellomics, Inc.). Within the application, 1,000 individual cells in each well were imaged at three different wavelengths, using an Omega XF93 filter set at excitation/emission wavelengths of 350/461 nm (Hoechst), 494/519 nm (FITC), and 556/573 nm (Cy3). The following parameters were used for data analysis: average nuclear intensity, nuclei per field, average nuclear FITC intensity, and average nuclear Cy3 intensity. A nuclear mask was generated from Hoechst 33342-stained nuclei. Microtubule density and histone H3 phosphorylation were measured in the FITC and Cy3 channel, respectively. Microtubule density was defined as the average green (FITC) pixel intensity in an area defined by the nuclear mask. For determination of mitotic index and nuclear condensation, thresholds for Hoechst 33342 and phosphohistone-H3 intensities were defined as the average Hoechst 33342 or Cy3 intensity plus one standard deviation from twenty-eight vehicle-treated wells placed in the center of the microplate.
Cells were classified as positive if their average Hoechst 33342 or Cy3 intensity exceeded this threshold. To illustrate visually the effects of test agents on cellular microtubules and mitotic arrest, the identical 384-well plates then were used to acquire higher resolution images of selected wells.
Asynchronously growing HeLa cells were treated for 20 hours with each compound in collagen-coated 384 well microplates, fixed, and incubated with primary antibodies for tubulin and the mitotic marker protein phosphohistone H3, followed by FITC and Cy3-conjugated secondary antibodies, respectively. Cells were detected by nuclear counterstaining with Hoechst 33342, which also provided information about chromatin condensation and cell density as markers of cell death.

[2] = system: bovine brain tubulin (peptide/depsipeptide site); test: Inhibition of [3H]dolastatin 10 binding to tubulin (centrifugal gel filtration); conditions: 10 μM radiotracer, 10 μM tubulin; for % Inhibition of [3H]dolastatin 10 binding by 5 μM test agent: 30 min room temperature; for IC50: test agent 0.5-100 μM, Hill fit
Protocol: (§1) The new compounds were tested for their abilities to bind at the vinca domain and at the related peptide/depsipeptide site on tubulin using a modification of a centrifugal gel filtration method described by Bai et al., Mol. Pharmacol. 7: 965-76 (1995). In the initial screens, each 0.32 mL reaction mixture contained 5 μM test agent and 10 μM [^3H]vinblastine (specific activity 8.50 Ci/mmol; GE Healthcare Bio-Sciences, Picataway, N.J.) or 10 μM [^3H]dolastatin 10 (specific activity 1.96 Ci/mmol; obtained from the Drug Synthesis and Chemistry Branch of the National Cancer Institute) predissolved in DMSO (final concentration 1% v/v) and 10 μM bovine brain tubulin, all in 0.1 M 2-(4-morpholino)ethanesulfonic acid (Mes), pH 6.9, containing 0.5 mM MgCl2. The mixture was incubated for 30 min at room temperature. Two 0.15 mL aliquots of the reaction mixture were applied to duplicate 2 mL beds of pre-swollen (in Mes, pH 6.9, containing 0.5 mM MgCl2) Sephadex G-50 (superfine) contained in Handee columns (Pierce Biotechnology, Rockford, Ill.). The columns were centrifuged at 800×g for 4 minutes and the protein concentration in the effluent was determined, using the bicinchoninic acid assay. The amount of radiolabeled ligand bound to tubulin was determined using scintillation spectrometry. Each value represents the mean ±SD of four determinations. […] Inhibition was calculated as the percent difference relative to that of the control incubation with DMSO (i.e., without test agent—assigned as 0% inhibition). […] GraphPad Prism was used to fit the resulting data to the Hill equation to determine the IC50 values.

[3] = system: bovine brain tubulin (vinca domain); test: Inhibition of [3H]vinblastine binding to tubulin (centrifugal gel filtration); conditions: for % Inhibition of [3H]vinblastine binding by 5 μM test agent / IC50: 10 μM radiotracer, 10 μM tubulin; for % Inhibition of [3H]vinblastine binding by 5 μM test agent: 30 min room temperature; for IC50: test agent 0.5-100 μM, Hill fit
Protocol: as §1

| SMILES | IC50 (bovine brain tubulin) [µM] | Microtubule Density MDEC (minimum detectable effective concentration) [1] [nM] | Mitotic Index MDEC (percentage of phosphohistone H3-positive cells) [1] [nM] | Nuclear Condensation MDEC (minimum detectable effective concentration) [1] [nM] | EC50 [1] [µM] | activity in high-content analysis of mitotic arrest (in words) ([1]; trifluoroacetic acid salt) | potency relative to paclitaxel, vincristine, or WZY-III-69A ([1]; all of the endpoints measured) [fold] | % Inhibition of [3H]dolastatin 10 binding by 5 μM test agent [2] [%] | IC50 [2] [µM] | ability to inhibit [3H]vinblastine binding to isolated tubulin (in words) [3] | % Inhibition of [3H]vinblastine binding by 5 μM test agent [3] [%] | IC50 [3] [µM] | activity in high-content analysis of mitotic arrest (in words) [1] |
| --- | --- | --- | --- | --- | --- | --- | --- | --- | --- | --- | --- | --- | --- |
| CCC(C)[C@H](NC(=O)[C@H]1CCCCN1C)C(=O)N(C)[C@H](C[C@@H](OC(C)=O)c1nc(C(=O)N[C@@H](Cc2ccccc2)C[C@H](C)C(=O)O)cs1)C(C)C (stereo partly shown) [WZY-III-63C, N^14-Desacetoxytubulysin H trifluoroacetic acid salt] | 2.3 | 0.16 ± 0.05 | 0.10 ± 0.02 | 0.13 ± 0.04 | 0.00037 ± 9e-05 | active in the picomolar range; also recorded: almost two orders of magnitude more potent than vincristine or paclitaxel; also recorded: activity in the picomolar range | ~50 | 31 ± 3 | 10 ± 1 | equipotent to dolastatin 10 | 50 ± 4 | 5.6 ± 0.5 | – |
| CCC(C)[C@H](NC(=O)CN(C)C)C(=O)N(C)[C@H](C[C@H](OC(C)=O)c1nc(C(=O)N[C@@H](Cc2ccccc2)C[C@H](C)C(=O)O)cs1)C(C)C (stereo partly drawn) [WZY-III-64A, (2S,4R)-4-(2-((6S,9R,11S)-6-sec-Butyl-9-isopropyl-2,8-dimethyl-4,7,13-trioxo-12-oxa-2,5,8-triazatetradecan-11-yl)thiazole-4-carboxamido)-2-methyl-5-phenylpentanoic acid] | > 5 | 56.6 ± 30.9 | 23.9 ± 5.8 | 32.4 ± 8.6 | 0.0957 ± 0.0208 | – | – | −11 ± 10 | – | – | 2 ± 5 | > 50 | about five-fold less active |
| CCC(C)[C@H](NC(=O)CN(C)C)C(=O)N(C)[C@H](C[C@@H](OC(C)=O)c1nc(C(=O)N[C@@H](Cc2ccccc2)C[C@H](C)C(=O)O)cs1)C(C)C (stereo partly drawn) [WZY-III-69A, (2S,4R)-4-(2-((6S,9R,11R)-6-sec-Butyl-9-iso-propyl-2,8-dimethyl-4,7,13-trioxo-12-oxa-2,5,8-triazatetradecan-11-yl)thiazole-4-carboxamido)-2-methyl-5-phenylpentanoic acid] | 3.1 | 15.1 ± 11.1 | 2.5 ± 0.4 | 12.4 ± 10.2 | 0.0175 ± 0.0066 | – | – | 4 ± 3 | 64 ± 9 | – | 43 ± 1 | 8.8 ± 1.6 | as active as paclitaxel or vincristine |
